# According to PMC9599717, “The Multicellular Effects of VDAC1 N-Terminal-Derived Peptide” (Biomolecules, 2022):
# Tested on: HeLa (human cervix adenocarcinoma)
# Test: Cell death by PI staining and flow cytometry (FACS), HeLa
# Type: cell-based
# Details: HeLa cells
# Procedure: MEC-1 cells were incubated in a serum-free medium with various concentrations of VDAC1-based peptides for 1.5 h at room temperature (RT), collected by centrifugation, washed with phosphate-buffered saline (PBS), and analyzed for cell death. Adherent cancer cells were seeded in culture plates and allowed to adhere overnight in a sterile cell culture incubation chamber maintained at 37 °C and 5% CO2. The next day, media was removed from the plates, and cells were treated with various concentrations of VDAC1-based peptides for the indicated time in serum-free Dulbecco’s Modified Eagle Medium (DMEM) with and without DMSO (final 0.15%) as a control for 6 h at 37 °C and 5% CO2. Cells were trypsinized, centrifuged (1500× g, 5 min), and washed with PBS.
# Cell death was analyzed by the propidium iodide (PI) staining, followed by flow cytometry with the iCyt sy3200 Benchtop Cell Sorter/Analyzer and analysis with EC800 v 1.3.7 software (Sony Biotechnology Inc., San Jose, CA, USA). Apoptosis was analyzed by PI and annexin V-FITC staining, which was carried out according to the manufacturer’s instructions with minor modifications. […] Next, cells were washed and PI (6.25 μg/mL), was added immediately before flow cytometry At least 10,000 events were collected, recorded on a dot plot, and analyzed by flow cytometry. […]
substance,measurement,setting,value
19-FTKGYGFGL-26- RQIKIWFQNRRMKWKK [D-Δ(1-18)N-Ter-Antp],Maximal cell death (at the concentration for maximal cell death),6 h,100%
same,IC50,"6 h incubation, serum-free medium, PI staining and FACS, read-out: IC50, peptide concentration required for half-maximal cell death activity",2 µM
